The results in this text go back to publication PMC5860131, “Identification of natural products as novel ligands for the human 5-HT2C receptor” (Biophysics Reports, 2018).

The subject of the assay is cortical pyramidal neurons. In words: Whole-cell patch clamp recording of spontaneous synaptic current (SPSC) in brain slices. Format: cell-based. Conditions: 30 μmol/L compound incubation, 10 μmol/L 5-HT; mouse brain slices. As to the method: 5-HT receptors play important roles in central and peripheral nervous systems. Malfunctions of these receptors have been linked to many neural disorders such as depression and psychosis. The effect of (–)-crebanine on changes in 5-HT induced synaptic transmission was evaluated by electrophysiological recording of mouse brain slices (Jang et al. [2012]). The spontaneous synaptic current (SPSC) of cortical pyramidal neurons was recorded in whole cell mode.
Cortical slices from ICR mouse of both genders (15–21 days) were prepared for electrophysiological recording. In brief, the animals were decapitated and brains were placed in cold sucrose artificial cerebrospinal fluid (sucrose-ASCF, in mmol/L: sucrose 213, KCl 2.5, NaH2PO4 1.25, NaHCO3 26, D-glucose 10, MgSO4 2, CaCl2 2, pH 7.4, 0–4 °C, saturated with 95% O2 and 5% CO2). The brains were cut into 280 or 300 μm slices with a vibratome (Leica VT1200S, Germany); slices were then incubated with ACSF (in mmol/L: NaCl 126, KCl 2.5, NaH2PO4 1.25, NaHCO3 26, D-glucose 25, MgSO4 2, CaCl2 2, pH 7.4, saturated with 95% O2 and 5% CO2) at room temperature for 1 h.
A whole-cell patch clamp technique was used. […] Activity of cortical pyramidal neurons was recorded using an amplifier (HEKA EPC 10 USB, Germany) in the voltage clamp mode. […]
Background: Patch clamp records ionic current or voltage across a cell membrane.

Turning to `COc1ccc2c(c1OC)C[C@@H]1c3c(cc4c(c3-2)OCO4)CCN1C` [Compound 1, (–)-crebanine], the “effect on 5-HT induced SPSC” value is listed as “significantly attenuated”.
